In PubChem BioAssay AID330 (DTP/NCI, 2004):
Values joined by “and” are separate entries in the source; they are usually repeats but may differ in a detail not shown here. Equal entries are not always repeated. Inconclusive results and toxic doses are left out. The calls were made as follows: active = survival T/C of 150% or more; inactive = T/C below 125% in these data.

Test system: P388 leukemia ip, CD2F1 mice, survival T/C
Test: NCI In Vivo Anticancer Drug Screen. Data for tumor model P388 Leukemia (intraperitoneal) in CD2F1 (CDF1) mice
Conditions: endpoint: median survival time, higher = longer survival
In short: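 Mice carrying the transplanted tumor received test compound or vehicle. Survival was recorded in each group, and the value is the treated-group measurement divided by that of the vehicle-treated control group.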

[1] = dose: 25.0 mg/kg/injection, schedule: Q01DX005 (ip), vehicle: Klucel (hydroxypropylcellulose) (HPC)
[2] = dose: 50.0 mg/kg/injection, schedule: Q01DX005 (ip), vehicle: Klucel (hydroxypropylcellulose) (HPC)
[3] = dose: 100.0 mg/kg/injection, schedule: Q01DX005 (ip), vehicle: Klucel (hydroxypropylcellulose) (HPC)
[4] = dose: 200.0 mg/kg/injection, schedule: Q01DX005 (ip), vehicle: Klucel (hydroxypropylcellulose) (HPC)
[5] = dose: 50.0 mg/kg/injection, schedule: Q01DX009 (ip), vehicle: saline with Tween-80
[6] = dose: 50.0 mg/kg/injection, schedule: Q01DX005 (ip), vehicle: saline with Tween-80
[7] = dose: 100.0 mg/kg/injection, schedule: Q01DX005 (ip), vehicle: saline with Tween-80
[8] = dose: 200.0 mg/kg/injection, schedule: Q01DX005 (ip), vehicle: saline with Tween-80
[9] = dose: 100.0 mg/kg/injection, schedule: Q01DX009 (ip), vehicle: saline with Tween-80
[10] = dose: 200.0 mg/kg/injection, schedule: Q01DX009 (ip), vehicle: saline with Tween-80
[11] = dose: 50.0 mg/kg/injection, schedule: Q01DX001 (ip), vehicle: Klucel (hydroxypropylcellulose) (HPC)
[12] = dose: 100.0 mg/kg/injection, schedule: Q01DX001 (ip), vehicle: Klucel (hydroxypropylcellulose) (HPC)
[13] = dose: 200.0 mg/kg/injection, schedule: Q01DX001 (ip), vehicle: Klucel (hydroxypropylcellulose) (HPC)
[14] = dose: 50.0 mg/kg/injection, schedule: Q01DX009 (ip), vehicle: saline

Measured: T/C

COC(=O)[C@]1(C)CCC[C@@]2(C)[C@@H]3C[C@@H]4[C@H]5C[C@@]3(CC[C@@H]21)C[C@@]45C
inactive: [1] 100 % of control | [2] 97 % of control | [3] 97 % of control | [4] 95 % of control

CN1CCC(CN2c3ccccc3Sc3ccccc32)C1 (centres undefined)
inactive: dose: 12.5 mg/kg/injection, schedule: Q01DX009 (ip), vehicle: saline with Tween-80 104 % of control | dose: 25.0 mg/kg/injection, schedule: Q01DX009 (ip), vehicle: saline with Tween-80 107 % of control | [5] 116 % of control

CCOC(=O)C(=O)C(C(=O)c1ccccn1)c1nc2n(c1O)C(=N)N=N2 (centres undefined)
inactive: [6] 102 % of control | [7] 94 % of control | [8] 87 % of control

COc1ccccc1NC(CCN1CCCCC1)=NC(C)(C)C
inactive: [5] 111 % of control | [9] 106 % of control | [10] 104 % of control

Cc1[nH]c2cc(Br)c(Br)cc2c1/C=N/NC(N)=S
inactive: [11] 100 % of control | [12] 96 % of control | [13] 92 % of control

NC(=S)c1ccc(/C=N/c2nc3ccccc3s2)cc1
inactive: dose: 25.0 mg/kg/injection, schedule: Q01DX001 (ip), vehicle: Klucel (hydroxypropylcellulose) (HPC) 103 % of control | [11] 97 % of control | [12] 96 % of control and 97 % of control | [13] 97 % of control | dose: 400.0 mg/kg/injection, schedule: Q01DX001 (ip), vehicle: Klucel (hydroxypropylcellulose) (HPC) 97 % of control

CC1(C(=O)OCc2ccccc2)NCCS1 (centres undefined)
inactive: [5] 100 % of control | [9] 96 % of control | [10] 109 % of control

O=[N+]([O-])c1cn(CCCNc2c3ccccc3nc3ccccc23)cn1
inactive: dose: 60.0 mg/kg/injection, schedule: Q01DX005 (ip), vehicle: saline with Tween-80 95 % of control | dose: 120.0 mg/kg/injection, schedule: Q01DX005 (ip), vehicle: saline with Tween-80 107 % of control | dose: 240.0 mg/kg/injection, schedule: Q01DX005 (ip), vehicle: saline with Tween-80 112 % of control

c1ccc(-c2nnc3nn4c(-c5ccccc5)cnnc4c3c2-c2ccccc2)cc1
inactive: [2] 93 % of control | [3] 91 % of control | [4] 90 % of control

O=S(=O)(NCCNS(=O)(=O)c1ccccc1)c1ccccc1
inactive: dose: 25.0 mg/kg/injection, schedule: Q01DX009 (ip), vehicle: Klucel (hydroxypropylcellulose) (HPC) 90 % of control | dose: 50.0 mg/kg/injection, schedule: Q01DX009 (ip), vehicle: Klucel (hydroxypropylcellulose) (HPC) 100 % of control | dose: 100.0 mg/kg/injection, schedule: Q01DX009 (ip), vehicle: Klucel (hydroxypropylcellulose) (HPC) 90 % of control | dose: 200.0 mg/kg/injection, schedule: Q01DX009 (ip), vehicle: Klucel (hydroxypropylcellulose) (HPC) 91 % of control

O=C(Nc1ccc(OCCCCCOc2ccccc2)cc1)C(F)(F)F
inactive: [5] 100 % of control | [9] 116 % of control | [10] 114 % of control

O=C(N/N=C/c1ccccc1O)C(=O)Nc1ccc(F)cc1
inactive: [2] 94 % of control | [3] 92 % of control | [4] 87 % of control

CCCCCCCCCCCC(=O)NC1CCS(=O)(=O)C1 (centres undefined)
inactive: dose: 37.5 mg/kg/injection, schedule: Q01DX009 (ip), vehicle: Klucel (hydroxypropylcellulose) (HPC) 99 % of control | dose: 75.0 mg/kg/injection, schedule: Q01DX009 (ip), vehicle: Klucel (hydroxypropylcellulose) (HPC) 96 % of control | dose: 150.0 mg/kg/injection, schedule: Q01DX009 (ip), vehicle: Klucel (hydroxypropylcellulose) (HPC) 97 % of control | dose: 300.0 mg/kg/injection, schedule: Q01DX009 (ip), vehicle: Klucel (hydroxypropylcellulose) (HPC) 95 % of control

COc1c2c(cc3c1OCO3)CCN(C)C2
inactive: dose: 10.0 mg/kg/injection, schedule: Q01DX009 (ip), vehicle: saline 106 % of control | dose: 20.0 mg/kg/injection, schedule: Q01DX009 (ip), vehicle: saline 101 % of control | dose: 40.0 mg/kg/injection, schedule: Q01DX009 (ip), vehicle: saline 98 % of control | dose: 80.0 mg/kg/injection, schedule: Q01DX009 (ip), vehicle: saline 104 % of control

CC12CCC(Br)C(C)(C)C1C(O)C=C1C(=O)OCC1O2 (centres undefined)
inactive: dose: 4.0 mg/kg/injection, schedule: Q01DX005 (ip), vehicle: Klucel (hydroxypropylcellulose) (HPC) 102 % of control | dose: 8.0 mg/kg/injection, schedule: Q01DX005 (ip), vehicle: Klucel (hydroxypropylcellulose) (HPC) 96 % of control | dose: 16.0 mg/kg/injection, schedule: Q01DX005 (ip), vehicle: Klucel (hydroxypropylcellulose) (HPC) 102 % of control | dose: 32.0 mg/kg/injection, schedule: Q01DX005 (ip), vehicle: Klucel (hydroxypropylcellulose) (HPC) 102 % of control

COC(=O)C1C2CCC1C2 (centres undefined)
inactive: dose: 25.0 mg/kg/injection, schedule: Q01DX009 (ip), vehicle: other 97 % of control | dose: 50.0 mg/kg/injection, schedule: Q01DX009 (ip), vehicle: other 110 % of control | dose: 100.0 mg/kg/injection, schedule: Q01DX009 (ip), vehicle: other 105 % of control | dose: 200.0 mg/kg/injection, schedule: Q01DX009 (ip), vehicle: other 107 % of control | dose: 400.0 mg/kg/injection, schedule: Q01DX009 (ip), vehicle: other 110 % of control

CNC(C)(C(=O)O)C(=O)Nc1ccccc1 (centres undefined)
inactive: dose: 100.0 mg/kg/injection, schedule: Q01DX001 (ip), vehicle: saline 112 % of control | dose: 200.0 mg/kg/injection, schedule: Q01DX001 (ip), vehicle: saline 123 % of control

C/C(=C1/N=C(c2ccccc2)OC1=O)c1ccccc1
inactive: [6] 98 % of control | [7] 96 % of control | [8] 98 % of control

CCCCCCCCCCCC[N+]1([O-])CCOCC1
inactive: dose: 0.75 mg/kg/injection, schedule: Q01DX009 (ip), vehicle: saline with Tween-80 93 % of control | dose: 1.5 mg/kg/injection, schedule: Q01DX009 (ip), vehicle: saline with Tween-80 91 % of control | dose: 3.0 mg/kg/injection, schedule: Q01DX009 (ip), vehicle: saline with Tween-80 93 % of control | dose: 12.5 mg/kg/injection, schedule: Q01DX009 (ip), vehicle: saline 91 % of control | dose: 25.0 mg/kg/injection, schedule: Q01DX009 (ip), vehicle: saline 101 % of control and 94 % of control | [14] 99 % of control and 97 % of control

O=C(c1ccco1)C(O)NC(=S)c1ccc(Cl)cc1 (centres undefined)
inactive: [5] 113 % of control and 117 % of control | [9] 116 % of control

COc1ccc(S(=O)(=O)N/N=C/c2cnc[nH]2)cc1
inactive: dose: 12.5 mg/kg/injection, schedule: Q01DX005 (ip), vehicle: Klucel (hydroxypropylcellulose) (HPC) 100 % of control | [1] 97 % of control | [2] 97 % of control | [3] 88 % of control | [4] 90 % of control and 94 % of control | dose: 400.0 mg/kg/injection, schedule: Q01DX005 (ip), vehicle: Klucel (hydroxypropylcellulose) (HPC) 117 % of control

Cn1nnc(-c2nnnn2N)n1
inactive: [14] 95 % of control | dose: 100.0 mg/kg/injection, schedule: Q01DX009 (ip), vehicle: saline 94 % of control | dose: 200.0 mg/kg/injection, schedule: Q01DX009 (ip), vehicle: saline 94 % of control
